Measured values from patent publication US7973072B2, “Substituted benzo-condensed cyclohexanone derivatives and the use thereof for medicament production” (Gruenenthal GmbH, priority 2005, dated 2011).

Legend:
[1] = target: T1, vanilloid receptor 1 (VR1/TRPV1) of the rat (Rattus norvegicus, UniProt O35433); experiment: FLIPR Ca2+ functional study on rat vanilloid receptor 1 (rat dorsal root ganglia cells or CHO K1 cells transfected with rat VR1); type: cell-based; conditions: for activation at 10 µM / inhibition at 10 µM: CHO-K1, test compound 10 μM; for activation at 10 µM: % activation based on Ca2+ signal after 10 μM capsaicin (CP), read-out: VR1 (rat) (% stimulation compared to 10 μM CP); for inhibition at 10 µM: suppression of Ca2+ current after 100 nM capsaicin, relative to maximum inhibition with 10 μM capsaicin (CP), read-out: VR1 (rat) (% inhibition compared to 10 μM CP); for EC50: agonistic action
T1 construct: host or cells: rat dorsal root ganglia primary cells (Ia) or CHO K1 cells stably transfected with the rat VR1 gene (Ib)
T1 sequence (O35433 whole entry): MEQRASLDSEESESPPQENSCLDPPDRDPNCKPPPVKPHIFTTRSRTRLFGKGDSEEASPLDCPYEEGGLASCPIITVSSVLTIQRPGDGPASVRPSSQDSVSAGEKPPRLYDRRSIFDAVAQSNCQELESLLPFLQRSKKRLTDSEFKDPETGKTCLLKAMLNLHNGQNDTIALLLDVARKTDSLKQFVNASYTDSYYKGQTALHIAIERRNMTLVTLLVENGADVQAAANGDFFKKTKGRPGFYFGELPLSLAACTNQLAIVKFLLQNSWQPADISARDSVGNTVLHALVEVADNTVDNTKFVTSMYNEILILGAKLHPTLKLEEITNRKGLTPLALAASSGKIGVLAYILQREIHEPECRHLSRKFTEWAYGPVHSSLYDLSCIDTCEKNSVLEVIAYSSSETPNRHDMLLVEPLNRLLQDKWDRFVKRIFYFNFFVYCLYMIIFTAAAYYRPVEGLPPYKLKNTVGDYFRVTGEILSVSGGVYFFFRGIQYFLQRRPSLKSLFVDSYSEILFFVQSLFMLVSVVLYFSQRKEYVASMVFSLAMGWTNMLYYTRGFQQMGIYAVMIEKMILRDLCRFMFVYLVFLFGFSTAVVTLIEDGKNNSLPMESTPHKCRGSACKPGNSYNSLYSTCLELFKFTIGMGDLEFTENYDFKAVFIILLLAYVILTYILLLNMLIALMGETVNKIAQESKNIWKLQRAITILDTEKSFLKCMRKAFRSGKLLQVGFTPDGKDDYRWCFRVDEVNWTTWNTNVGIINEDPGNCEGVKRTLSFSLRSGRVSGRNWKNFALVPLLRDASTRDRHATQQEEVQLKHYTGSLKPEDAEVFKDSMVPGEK
Procedure: The agonistic or antagonistic action of the substances to be studied on the vanilloid receptor 1 (VR1/TRPV1) of the rat species can be determined with the following assay. In this assay, the Ca^2+ current through the receptor channel is quantified with the aid of a Ca^2+-sensitive dye (Fluo-4 type, Molecular Probes Europe BV, Leiden the Netherlands) in a fluorescent imaging plate reader (FLIPR, Molecular Devices, Sunnyvale, USA).
Complete medium: 50 ml HAMS F12 Nutrient Mixture (Gibco Invitrogen GmbH, Karlsruhe, Germany) with
10% by volume of FCS (fetal calf serum, Gibco Invitrogen GmbH, Karlsruhe, Germany, heat-inactivated);
2 mM L-glutamine (Sigma, Munich, Germany);
1% by weight of AA solution (antibiotic/antimycotic solution, PAA, Pasching, Austria) and 25 ng/ml of NGF medium (2.5 S, Gibco Invitrogen GmbH, Karlsruhe, Germany)
Cell culture plate: poly-D-lysine-coated, black 96-hole plates with a clear bottom (96 well black/clear plate, BD Biosciences, Heidelberg, Germany) are additionally coated with laminin (Gibco Invitrogen GmbH, Karlsruhe, Germany) by diluting laminin to a concentration of 100 μg/ml with PBS (Ca—Mg-free PBS, Gibco Invitrogen GmbH, Karlsruhe, Germany). Aliquots having a concentration of 100 μg/ml of laminin are withdrawn and stored at −20° C. The aliquots are diluted with PBS in a ratio of 1:10 to 10 μg/ml of laminin and in each case 50 μl of the solution are pipetted into a well of the cell culture plate. The cell culture plates are incubated at 37° C. for at least two hours, the supernatant solution is removed by suction and the wells are each washed twice with PBS. The coated cell culture plates are stored with supernatant PBS which is not removed until directly before the application of the cells.
The spinal column is removed from beheaded rats and placed directly into cold HBSS buffer (Hank's buffered saline solution, Gibco Invitrogen GmbH, Karlsruhe, Germany), i.e. placed in an ice bath, which has been admixed with 1% by volume of an AA solution (antibiotic/antimycotic solution, PAA, Pasching, Austria). The spinal column is severed longitudinally and removed from the spinal canal together with fasciae. Subsequently, the dorsal root ganglia (DRGs) are removed and in turn stored in cold HBSS buffer admixed with 1% by volume of an […]. The DRGs freed completely of blood residues and spinal nerves are in each case transferred to 500 μl of cold type 2 collagenase (PAA, Pasching, Austria) and incubated at 37° C. for 35 minutes. After addition of 2.5% by volume of trypsin (PAA, Pasching, Austria), incubation is continued at 37° C. for a further 10 minutes. After complete incubation, the enzyme solution is cautiously pipetted off and the remaining DRGs are each admixed with 500 μl of complete medium.
The DRGs are each suspended repeatedly, drawn through cannulas No. 1, No. 12 and No. 16 by means of a syringe and transferred to 50 ml Falcon tubes which are made up to 15 ml with complete medium. The contents of each Falcon tube are in each case filtered through a 70 μm Falcon filter insert and centrifuged at 1200 revolutions and room temperature for 10 minutes. The resulting pellet is in each case taken up in 250 μl of complete medium and the cell count is determined.
The number of cells in the suspension is adjusted to 3 times 10^5 per ml and in each case 150 μl of this suspension are added to one well of the cell culture plates coated as described above. In the incubator, the plates are left to stand at 37° C., 5% by volume of CO2 and 95% relative air humidity for two to three days.
Subsequently, the cells are laden with 2 μM Fluo-4 and 0.01% by volume of Pluronic F127 (Molecular Probes Europe BV, Leiden, the Netherlands) in HBSS buffer (Hank's buffered saline solution, Gibco Invitrogen GmbH, Karlsruhe, Germany) at 37° C. for 30 min, washed 3× with HBSS buffer and, after a further incubation of 15 minutes, used in the FLIPR assay at room temperature for Ca^2+ measurement. […]

[2] = target: T2, human vanilloid receptor 1 (VR1) (Homo sapiens, UniProt Q8NER1); experiment: FLIPR Ca2+ functional study on human vanilloid receptor 1 (CHO K1 cells transfected with human VR1); type: cell-based; conditions: for inhibition at 10 µM: CHO-K1, test compound 10 μM, suppression of Ca2+ current after 100 nM capsaicin, relative to maximum inhibition with 10 μM capsaicin (CP), read-out: VR1 (human) (% inhibition compared to 10 μM CP); for EC50: agonistic action
T2 construct: expressed in transfected cells; host or cells: CHO K1 cells (ECACC), stably transfected
T2 sequence (Q8NER1 whole entry): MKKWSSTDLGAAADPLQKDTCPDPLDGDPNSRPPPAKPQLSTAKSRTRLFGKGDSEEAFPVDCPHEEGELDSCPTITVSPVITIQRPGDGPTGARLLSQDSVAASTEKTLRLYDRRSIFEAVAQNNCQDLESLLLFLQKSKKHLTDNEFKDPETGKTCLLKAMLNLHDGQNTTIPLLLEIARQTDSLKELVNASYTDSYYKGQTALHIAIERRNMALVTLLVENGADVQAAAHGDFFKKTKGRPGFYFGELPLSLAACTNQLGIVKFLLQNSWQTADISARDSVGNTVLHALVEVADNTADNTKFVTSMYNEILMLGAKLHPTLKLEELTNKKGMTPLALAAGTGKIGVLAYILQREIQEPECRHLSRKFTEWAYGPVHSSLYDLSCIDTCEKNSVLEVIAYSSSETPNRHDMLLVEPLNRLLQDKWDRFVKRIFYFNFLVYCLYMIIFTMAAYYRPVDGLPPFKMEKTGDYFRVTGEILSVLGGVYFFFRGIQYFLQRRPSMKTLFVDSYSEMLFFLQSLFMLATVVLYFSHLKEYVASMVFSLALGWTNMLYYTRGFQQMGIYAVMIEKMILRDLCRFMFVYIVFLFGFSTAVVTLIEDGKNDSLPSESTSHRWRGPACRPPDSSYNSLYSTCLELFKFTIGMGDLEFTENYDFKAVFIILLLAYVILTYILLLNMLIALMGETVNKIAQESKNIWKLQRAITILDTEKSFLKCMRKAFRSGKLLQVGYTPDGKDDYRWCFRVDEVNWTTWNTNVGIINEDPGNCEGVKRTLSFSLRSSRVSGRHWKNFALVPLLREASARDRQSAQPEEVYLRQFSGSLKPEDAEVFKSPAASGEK
Procedure: Chinese hamster ovary cells (CHO K1 cells, European Collection of Cell Cultures (ECACC), England) are transfected stably with the human vanilloid receptor 1 (VR1) gene or the vanilloid receptor 1 (VR1) gene of the rat. For functional studies, these cells are plated out onto poly-D-lysine-coated black 96-well plates with a clear bottom (BD Biosciences, Heidelberg, Germany) in a density of 25 000 cells/well. The cells are incubated overnight at 37° C. and 5% CO2 in culture medium (Ham's Nutrient Mixture F12, Gibco Invitrogen GmbH, Karlsruhe, Germany) with 10% by volume of FBS (fetal bovine serum, Gibco Invitrogen GmbH, Karlsruhe, Germany), and 18 μg/ml of L-proline (Gibco Invitrogen GmbH, Karlsruhe, Germany). The next day, the cells are laden with 2 μM Fluo-4 and 0.01% by volume of Pluronic F127 (Molecular Probes Europe BV, Leiden, The Netherlands) in HBSS buffer (Hank's buffered saline solution, Gibco Invitrogen GmbH, Karlsruhe, Germany) at 37° C. for 30 min. Subsequently, the plates are washed 3 times with HBSS buffer and, after a further incubation of 15 minutes at room temperature, used for Ca^2+ measurement in the FLIPR assay. The Ca^2+-dependent fluorescence is measured before and after addition of substances λex=488 nm, λem=540 nm). The quantification is effected by measuring the highest fluorescence intensity (FC, fluorescence counts) over the time.
The FLIPR protocol consists of 2 substance additions. First, the compounds to be tested (10 μM) are pipetted onto the cells obtained according to Ia or Ib and the Ca^2+ current is compared with the control (capsaicin 10 μM). This gives rise to the result in % activation based on the Ca^2+ signal after addition of 10 μM capsaicin (CP). After incubation for 5 minutes, 100 nM capsaicin is applied and the current of Ca^2+ is likewise determined.
Desensitizing agonists and antagonists lead to a suppression in the Ca^2+ current. % inhibition is calculated compared to the maximum achievable inhibition with 10 μM capsaicin.
Triple determinations (n=3) are performed and they are repeated in at least 3 independent experiments (N=4).

Structure (SMILES)	activation at 10 µM [1] [%]	inhibition at 10 µM [1] [%]	EC50 ([1]; FLIPR) [µM]	melting point [°C]	inhibition at 10 µM [2] [%]	EC50 ([2]; FLIPR) [µM]	IC50 ([1]; FLIPR, antagonistic action) [µM]	IC50 ([2]; FLIPR, antagonistic action) [µM]
Cc1ccc2c(c1)[S+]([O-])CC(COC(=O)Nc1ccccc1)(COC(=O)Nc1ccccc1)C2=O (stereo not drawn) [Example Compound 47, 3,3-bis(phenylcarbamoyloxymethyl)-7-methyl-1-oxo-1λ^4-thiochroman-4-one]	11.8	61.5	20.3	65 to 73	59.2	13.4	–	–
Cc1ccc2c(c1)S(=O)(=O)CC(COC(=O)Nc1ccccc1)(COC(=O)Nc1ccccc1)C2=O [Example Compound 48, 3,3-bis(phenylcarbamoyloxymethyl)-7-methyl-1,1-dioxo-1λ^6-thiochroman-4-one]	64.9	88.8	3.4	85 to 95	81.1	1.85	–	–
CC(C)(C)c1ccc(NC(=O)OCC2(COC(=O)Nc3ccc(C(C)(C)C)cc3)CSc3ccccc3C2=O)cc1 [Example Compound 50, 3,3-bis(4-tert-butylphenylcarbamoyloxymethyl)thiochroman-4-one]	0	99.9	–	78 to 85	0	–	5.7	> 20
